Results published in ChEMBL document CHEMBL4020788, “Synthesis, SAR and molecular docking studies of benzo[d]thiazole-hydrazones as potential antibacterial and antifungal agents” (2017).
Active and inactive are the calls of the source. The rule behind the calls is not given here.

Columns and labels:
Assay type in all cases: functional
Klebsiella pneumoniae [1] = assay: Antibacterial activity against Klebsiella pneumoniae at 100 ug/ml after 24 hrs by agar well diffusion method; settings: for zone of inhibition at 100 µg/mL: read-out: DIZ
Bacillus subtilis [2] = assay: Antibacterial activity against Bacillus subtilis at 75 ug/ml after 24 hrs by agar well diffusion method
Staphylococcus aureus [3] = assay: Antibacterial activity against methicillin resistant Staphylococcus aureus MRSA090 at 100 ug/ml after 24 hrs by agar well diffusion method; settings: for zone of inhibition at 100 µg/mL: MRSA090, 24 h, read-out: DIZ
Klebsiella pneumoniae [4] = assay: Antibacterial activity against Klebsiella pneumoniae at 25 ug/ml after 24 hrs by agar well diffusion method
Aspergillus niger [5] = assay: Antifungal activity against Aspergillus niger at 75 ug/ml after 48 hrs by agar well diffusion method
Staphylococcus aureus [6] = assay: Antibacterial activity against Staphylococcus aureus at 100 ug/ml after 24 hrs by agar well diffusion method
Staphylococcus aureus [7] = assay: Antibacterial activity against Staphylococcus aureus at 75 ug/ml after 24 hrs by agar well diffusion method
Escherichia coli [8] = assay: Antibacterial activity against Escherichia coli at 75 ug/ml after 24 hrs by agar well diffusion method; settings: for zone of inhibition at 75 µg/mL: read-out: DIZ
Fusarium verticillioides [9] = assay: Antifungal activity against Fusarium moniliforme at 25 ug/ml after 48 hrs by agar well diffusion method
Klebsiella pneumoniae [10] = assay: Antibacterial activity against Klebsiella pneumoniae at 50 ug/ml after 24 hrs by agar well diffusion method
Bacillus subtilis [11] = assay: Antibacterial activity against Bacillus subtilis at 100 ug/ml after 24 hrs by agar well diffusion method
Staphylococcus aureus [12] = assay: Antibacterial activity against methicillin resistant Staphylococcus aureus MRSA090 at 50 ug/ml after 24 hrs by agar well diffusion method; settings: for zone of inhibition at 50 µg/mL: MRSA090, 24 h, read-out: DIZ
Fusarium verticillioides [13] = assay: Antifungal activity against Fusarium moniliforme at 50 ug/ml after 48 hrs by agar well diffusion method
Escherichia coli [14] = assay: Antibacterial activity against Escherichia coli at 100 ug/ml after 24 hrs by agar well diffusion method; settings: for zone of inhibition at 100 µg/mL: read-out: DIZ
Escherichia coli [15] = assay: Antibacterial activity against Escherichia coli at 25 ug/ml after 24 hrs by agar well diffusion method; settings: for zone of inhibition at 25 µg/mL: read-out: DIZ
Staphylococcus aureus [16] = assay: Antibacterial activity against methicillin resistant Staphylococcus aureus MRSA090 at 25 ug/ml after 24 hrs by agar well diffusion method; settings: for zone of inhibition at 25 µg/mL: MRSA090, 24 h, read-out: DIZ
Fusarium oxysporum [17] = assay: Antifungal activity against Fusarium oxysporum at 25 ug/ml after 48 hrs by agar well diffusion method; settings: for zone of inhibition at 25 µg/mL: read-out: DIZ
Fusarium oxysporum [18] = assay: Antifungal activity against Fusarium oxysporum at 75 ug/ml after 48 hrs by agar well diffusion method; settings: for zone of inhibition at 75 µg/mL: read-out: DIZ
Aspergillus niger [19] = assay: Antifungal activity against Aspergillus niger at 100 ug/ml after 48 hrs by agar well diffusion method
Bacillus subtilis [20] = assay: Antibacterial activity against Bacillus subtilis at 50 ug/ml after 24 hrs by agar well diffusion method
Fusarium oxysporum [21] = assay: Antifungal activity against Fusarium oxysporum at 100 ug/ml after 48 hrs by agar well diffusion method; settings: for zone of inhibition at 100 µg/mL: read-out: DIZ
Klebsiella pneumoniae [22] = assay: Antibacterial activity against Klebsiella pneumoniae at 75 ug/ml after 24 hrs by agar well diffusion method; settings: for zone of inhibition at 75 µg/mL: read-out: DIZ
Fusarium verticillioides [23] = assay: Antifungal activity against Fusarium moniliforme at 75 ug/ml after 48 hrs by agar well diffusion method
Staphylococcus aureus [24] = assay: Antibacterial activity against Staphylococcus aureus at 50 ug/ml after 24 hrs by agar well diffusion method
Escherichia coli [25] = assay: Antibacterial activity against Escherichia coli at 50 ug/ml after 24 hrs by agar well diffusion method; settings: for zone of inhibition at 50 µg/mL: read-out: DIZ
Bacillus subtilis [26] = assay: Antibacterial activity against Bacillus subtilis at 25 ug/ml after 24 hrs by agar well diffusion method
Staphylococcus aureus [27] = assay: Antibacterial activity against methicillin resistant Staphylococcus aureus MRSA090 at 75 ug/ml after 24 hrs by agar well diffusion method; settings: for zone of inhibition at 75 µg/mL: MRSA090, 24 h, read-out: DIZ
Aspergillus niger [28] = assay: Antifungal activity against Aspergillus niger at 25 ug/ml after 48 hrs by agar well diffusion method
Staphylococcus aureus [29] = assay: Antibacterial activity against Staphylococcus aureus at 25 ug/ml after 24 hrs by agar well diffusion method
Aspergillus niger [30] = assay: Antifungal activity against Aspergillus niger at 50 ug/ml after 48 hrs by agar well diffusion method
Fusarium oxysporum [31] = assay: Antifungal activity against Fusarium oxysporum at 50 ug/ml after 48 hrs by agar well diffusion method; settings: for zone of inhibition at 50 µg/mL: read-out: DIZ
Fusarium verticillioides [32] = assay: Antifungal activity against Fusarium moniliforme at 100 ug/ml after 48 hrs by agar well diffusion method

| SMILES | diameter of the inhibition zone (DIZ) (Klebsiella pneumoniae [4]) | diameter of the inhibition zone (DIZ) (Aspergillus niger [5]) | diameter of the inhibition zone (DIZ) (Staphylococcus aureus [6]) | diameter of the inhibition zone (DIZ) (Staphylococcus aureus [7]) | zone of inhibition at 75 µg/mL (Escherichia coli [8]) [mm] | diameter of the inhibition zone (DIZ) (Fusarium verticillioides [9]) | diameter of the inhibition zone (DIZ) (Klebsiella pneumoniae [10]) | diameter of the inhibition zone (DIZ) (Fusarium verticillioides [13]) | zone of inhibition at 100 µg/mL (Escherichia coli [14]) [mm] | zone of inhibition at 25 µg/mL (Escherichia coli [15]) [mm] | diameter of the inhibition zone (DIZ) (Aspergillus niger [19]) | diameter of the inhibition zone (DIZ) (Fusarium verticillioides [23]) | diameter of the inhibition zone (DIZ) (Staphylococcus aureus [24]) | zone of inhibition at 50 µg/mL (Escherichia coli [25]) [mm] | diameter of the inhibition zone (DIZ) (Aspergillus niger [28]) | diameter of the inhibition zone (DIZ) (Staphylococcus aureus [29]) | diameter of the inhibition zone (DIZ) (Aspergillus niger [30]) | diameter of the inhibition zone (DIZ) (Fusarium verticillioides [32]) | diameter of the inhibition zone (DIZ) (Bacillus subtilis [2]) | diameter of the inhibition zone (DIZ) (Bacillus subtilis [11]) | further results |
| --- | --- | --- | --- | --- | --- | --- | --- | --- | --- | --- | --- | --- | --- | --- | --- | --- | --- | --- | --- | --- | --- |
| Cc1cccc2nc(N/N=C/c3ccccc3)sc12 | inactive | inactive | inactive | inactive | 13 | inactive | inactive | inactive | 15 | 9 | inactive | inactive | inactive | 11 | inactive | inactive | inactive | inactive | – | – | zone of inhibition at 100 µg/mL (Klebsiella pneumoniae [1]): 10 mm; zone of inhibition at 75 µg/mL (Bacillus subtilis [2]; read-out: DIZ): 11 mm; diameter of the inhibition zone (DIZ) (Staphylococcus aureus [3]): inactive; zone of inhibition at 100 µg/mL (Bacillus subtilis [11]; read-out: DIZ): 13 mm; diameter of the inhibition zone (DIZ) (Staphylococcus aureus [12]): inactive; diameter of the inhibition zone (DIZ) (Staphylococcus aureus [16]): inactive; zone of inhibition at 25 µg/mL (Fusarium oxysporum [17]): 4 mm; zone of inhibition at 75 µg/mL (Fusarium oxysporum [18]): 13 mm; zone of inhibition at 50 µg/mL (Bacillus subtilis [20]; read-out: DIZ): 7 mm; zone of inhibition at 100 µg/mL (Fusarium oxysporum [21]): 16 mm; zone of inhibition at 75 µg/mL (Klebsiella pneumoniae [22]): 7 mm; zone of inhibition at 25 µg/mL (Bacillus subtilis [26]; read-out: DIZ): 5 mm; diameter of the inhibition zone (DIZ) (Staphylococcus aureus [27]): inactive; zone of inhibition at 50 µg/mL (Fusarium oxysporum [31]): 8 mm |
| CC/C=N/Nc1nc2cccc(C)c2s1 | inactive | inactive | inactive | inactive | – | inactive | inactive | inactive | – | – | inactive | inactive | inactive | – | inactive | inactive | inactive | inactive | inactive | inactive | diameter of the inhibition zone (DIZ) (Klebsiella pneumoniae [1]): inactive; diameter of the inhibition zone (DIZ) (Staphylococcus aureus [3]): inactive; diameter of the inhibition zone (DIZ) (Escherichia coli [8]): inactive; diameter of the inhibition zone (DIZ) (Staphylococcus aureus [12]): inactive; diameter of the inhibition zone (DIZ) (Escherichia coli [14]): inactive; diameter of the inhibition zone (DIZ) (Escherichia coli [15]): inactive; diameter of the inhibition zone (DIZ) (Staphylococcus aureus [16]): inactive; diameter of the inhibition zone (DIZ) (Fusarium oxysporum [17]): inactive; diameter of the inhibition zone (DIZ) (Fusarium oxysporum [18]): inactive; diameter of the inhibition zone (DIZ) (Bacillus subtilis [20]): inactive; diameter of the inhibition zone (DIZ) (Fusarium oxysporum [21]): inactive; diameter of the inhibition zone (DIZ) (Klebsiella pneumoniae [22]): inactive; diameter of the inhibition zone (DIZ) (Escherichia coli [25]): inactive; diameter of the inhibition zone (DIZ) (Bacillus subtilis [26]): inactive; diameter of the inhibition zone (DIZ) (Staphylococcus aureus [27]): inactive; diameter of the inhibition zone (DIZ) (Fusarium oxysporum [31]): inactive |
| Cc1cccc2nc(N/N=C/c3ccncc3)sc12 | – | – | inactive | inactive | 16 | inactive | – | inactive | 19 | 7 | – | inactive | inactive | 14 | – | inactive | – | inactive | inactive | inactive | zone of inhibition at 100 µg/mL (Klebsiella pneumoniae [1]): 18 mm; zone of inhibition at 100 µg/mL (Staphylococcus aureus [3]): 17 mm; zone of inhibition at 25 µg/mL (Klebsiella pneumoniae [4]; read-out: DIZ): 5 mm; zone of inhibition at 75 µg/mL (Aspergillus niger [5]; read-out: DIZ): 13 mm; zone of inhibition at 50 µg/mL (Klebsiella pneumoniae [10]; read-out: DIZ): 9 mm; zone of inhibition at 50 µg/mL (Staphylococcus aureus [12]): 10 mm; zone of inhibition at 25 µg/mL (Staphylococcus aureus [16]): 7 mm; diameter of the inhibition zone (DIZ) (Fusarium oxysporum [17]): inactive; diameter of the inhibition zone (DIZ) (Fusarium oxysporum [18]): inactive; zone of inhibition at 100 µg/mL (Aspergillus niger [19]; read-out: DIZ): 16 mm; diameter of the inhibition zone (DIZ) (Bacillus subtilis [20]): inactive; diameter of the inhibition zone (DIZ) (Fusarium oxysporum [21]): inactive; zone of inhibition at 75 µg/mL (Klebsiella pneumoniae [22]): 14 mm; diameter of the inhibition zone (DIZ) (Bacillus subtilis [26]): inactive; zone of inhibition at 75 µg/mL (Staphylococcus aureus [27]): 14 mm; zone of inhibition at 25 µg/mL (Aspergillus niger [28]; read-out: DIZ): 6 mm; zone of inhibition at 50 µg/mL (Aspergillus niger [30]; read-out: DIZ): 11 mm; diameter of the inhibition zone (DIZ) (Fusarium oxysporum [31]): inactive |
| Cc1ccc(/C=N/Nc2nc3cccc(C)c3s2)cc1 | inactive | inactive | – | inactive | 17 | inactive | inactive | inactive | 22 | 10 | inactive | inactive | inactive | 14 | inactive | inactive | inactive | inactive | inactive | inactive | diameter of the inhibition zone (DIZ) (Klebsiella pneumoniae [1]): inactive; zone of inhibition at 100 µg/mL (Staphylococcus aureus [3]): 17 mm; zone of inhibition at 100 µg/mL (Staphylococcus aureus [6]; read-out: DIZ): 10 mm; zone of inhibition at 50 µg/mL (Staphylococcus aureus [12]): 10 mm; zone of inhibition at 25 µg/mL (Staphylococcus aureus [16]): 6 mm; zone of inhibition at 25 µg/mL (Fusarium oxysporum [17]): 7 mm; zone of inhibition at 75 µg/mL (Fusarium oxysporum [18]): 14 mm; diameter of the inhibition zone (DIZ) (Bacillus subtilis [20]): inactive; zone of inhibition at 100 µg/mL (Fusarium oxysporum [21]): 17 mm; diameter of the inhibition zone (DIZ) (Klebsiella pneumoniae [22]): inactive; diameter of the inhibition zone (DIZ) (Bacillus subtilis [26]): inactive; zone of inhibition at 75 µg/mL (Staphylococcus aureus [27]): 14 mm; zone of inhibition at 50 µg/mL (Fusarium oxysporum [31]): 11 mm |
